Measurements: patent publication US20240262795A1, “PYRAZINE COMPOUNDS AS INHIBITORS OF FLT3” (Biomea Fusion, Inc., priority 2021, published 2024)

Key:
Assay type in all cases: cell-based, human
MOLM-13 = assay: Proliferation inhibition, CellTiter-Glo, MOLM-13; conditions: Homo sapiens, 96 h; MOLM-13 cells, IC50 (4 days), CellTiter-Glo; read-out: MOLM-13 IC50
Text: (§1) The proliferation inhibitory effect was investigated in human AML cell lines MOLM-13 (AddexBio: C0003003) and MV-4-11 (ATCC: CRL-9591), and CML cell line […] (ATCC: CRL-3343). Molm-13 is heterozygous for FLT3-ITD mutation, while MV4-11 is homozygous for FLT3-ITD (Quentmeier H, et al., Leukemia. 17(1):120-4). […] Cells were maintained in RPMI-1640 medium (ThermoFisher catalog no. 61870036) supplemented with 10% of Heat Inactivated FBS (ThermoFisher catalog no. A31605) and 1% Pen-Strep (ThermoFisher catalog no. 10378016) and cultured at 37° C. in a humidified incubator with 5% CO2. Cell lines were grown by […], and the cells were maintained in a range 70%-80% confluency.
(§2) ATP is present in all metabolically active cells and is considered as a marker for cell viability and proliferation. Metabolic cell activity was determined using the CellTiter-Glo kit (Promega catalog no. G7572), an ATP monitoring system based on the production of luminescence by the reaction of ATP with added UltraGlo® recombinant luciferase (Kawano et al., 2016, PLOS One, 8; 11(7):e0158888), according to the supplier's experimental recommendations. The assay was based on a 96 well plate format.
(§3) Test compounds were dissolved at 10 mM in DMSO (Sigma catalog no. D8418; purity≥99.9%) and stored at −20° C. Eight concentrations of test compound were assessed in duplicate in an individual test occasion in parallel in the selected cell lines. Gilteratinib and FF-10101 were used as reference compounds and tested in duplicate at eight concentrations. 100% of proliferation is represented by the untreated cells (0.2% DMSO).
(§4) On the day of the experiment, cells were quantified with the cell viability analyzer NucleoCounter (Chemometec NC-200) and diluted with fresh medium to obtain the cell density of about 10,000 cells per 200 μL medium. 200 μL of cell suspension were added into wells in the 96 well plate.
(§5) After 2 hours from seeding cells, compounds at desired concentrations were added using a D300e compound dispenser (Life Sciences Tecan D300) with shaking between each compound dispensed. Assay plates were incubated at 37° C. in a humidified incubator with 5% CO2.
(§6) On day 4 (˜96 hrs after compound addition) assay plates were equilibrated at room temperature for approximately 15 min, and then 40 μL/well of the Promega CellTiterGlo® reagent was added. Contents were mixed for 5 min on an orbital shaker to promote cell lysis, and then incubated at room temperature for an additional 10 min in the dark to stabilize the luminescent signal. Luminescence was read by using a GloMlax GM300 plate reader (Promega) using the luminescence for 96 well plate standard protocol.
(§7) Results were analyzed by GraphPad (Prism) and IC50 values were calculated by non-linear regression using four parameter-logistic equation.

MV-4-11 = assay: Proliferation inhibition, CellTiter-Glo, MV-4-11; conditions: Homo sapiens, MV4-11, 96 h; MV-4:11 cells, IC50 (4 days), CellTiter-Glo; read-out: MV-4:11 IC50
Text: as §1, §2, §3, §4, §5, §6, §7

K-562 = assay: Proliferation inhibition, CellTiter-Glo, K-562; conditions: Homo sapiens, K562, 96 h; K-562 cells, IC50 (4 days), CellTiter-Glo; read-out: K-562 IC50
Text: as §1, §2, §3, §4, §5, §6, §7

| Structure (SMILES) | IC50 (MOLM-13) [nM] | IC50 (MV-4-11) [nM] | IC50 (K-562) [nM] |
| --- | --- | --- | --- |
| CCc1nc(C(N)=O)c(Nc2cc(CCNC(=O)[C@H](C)N(C)C(=O)/C=C/CN(C)C)ccn2)nc1C1CC1 [Compound 304, 5-cyclopropyl-3-[[4-[2-[[(2S)-2-[[(E)-4-(dimethylamino)but-2-enoyl]-methyl-amino]propanoyl]amino]ethyl]-2-pyridyl]amino]-6-ethyl-pyrazine-2-carboxamide] | 100 to 500 | 100 to 500 | > 500 |
| C=CC(=O)N(C)CC(=O)NCCc1cccc(Nc2nc(N(C)C(C)C)c(C)nc2C(N)=O)c1 [Compound 309, 5-[isopropyl(methyl)amino]-6-methyl-3-[3-[2-[[2-[methyl(prop-2-enoyl)amino]acetyl]amino]ethyl]anilino]pyrazine-2-carboxamide] | 100 to 500 | 1 to 10 | > 500 |
| CCc1nc(C(N)=O)c(Nc2cccc(C[C@@H](C)NC(=O)CN(C)C(=O)/C=C/CN(C)C)c2)nc1C [Compound 311, 3-[3-[(2R)-2-[[2-[[(E)-4-(dimethylamino)but-2-enoyl]-methyl-amino]acetyl]amino]propyl]anilino]-6-ethyl-5-methyl-pyrazine-2-carboxamide] | 100 to 500 | 10 to 100 | > 500 |
| CCc1nc(C(N)=O)c(Nc2cccc(C[C@H](C)NC(=O)CN(C)C(=O)/C=C/CN(C)C)c2)nc1C [Compound 312, 3-[3-[(2S)-2-[[2-[[(E)-4-(dimethylamino)but-2-enoyl]-methyl-amino]acetyl]amino]propyl]anilino]-6-ethyl-5-methyl-pyrazine-2-carboxamide] | 100 to 500 | 10 to 100 | > 500 |
| CCc1nc(C(N)=O)c(Nc2cccc(CCNC(=O)[C@H](C)N(C)C(=O)/C=C/CN(C)C)n2)nc1C1CC1 [Compound 313, 5-cyclopropyl-3-[[6-[2-[[(2S)-2-[[(E)-4-(dimethylamino)but-2-enoyl]-methyl-amino]propanoyl]amino]ethyl]-2-pyridyl]amino]-6-ethyl-pyrazine-2-carboxamide] | 100 to 500 | 10 to 100 | > 500 |
| CCc1nc(C(N)=O)c(Nc2cccc(C[C@@H](C)NC(=O)[C@H](C)N(C)C(=O)/C=C/CN(C)C)c2)nc1C [Compound 314, 3-[3-[(2R)-2-[[(2S)-2-[[(E)-4-(dimethylamino)but-2-enoyl]-methyl-amino]propanoyl]amino]propyl]anilino]-6-ethyl-5-methyl-pyrazine-2-carboxamide] | 100 to 500 | 10 to 100 | > 500 |
| CCc1cc(C(N)=O)c(Nc2cccc(CCNC(=O)[C@H](C)N(C)C(=O)/C=C/CN(C)C)c2)nc1C1CC1 [Compound 316, 6-cyclopropyl-2-[3-[2-[[(2S)-2-[[(E)-4-(dimethylamino)but-2-enoyl]-methyl-amino]propanoyl]amino]ethyl]anilino]-5-ethyl-pyridine-3-carboxamide] | 100 to 500 | 10 to 100 | > 500 |
| Cc1cc(C(N)=O)c(Nc2cccc(CCNC(=O)[C@H](C)N(C)C(=O)/C=C/CN(C)C)c2)nc1C1CC1 [Compound 319, 6-cyclopropyl-2-[3-[2-[[(2S)-2-[[(E)-4-(dimethylamino)but-2-enoyl]-methyl-amino]propanoyl]amino]ethyl]anilino]-5-methyl-pyridine-3-carboxamide] | 10 to 100 | 10 to 100 | > 500 |
| CCc1cc(C(N)=O)c(Nc2cncc(CCNC(=O)[C@H](C)N(C)C(=O)/C=C/CN(C)C)c2)nc1C1CC1 [Compound 320, 6-cyclopropyl-2-[[5-[2-[[(2S)-2-[[(E)-4-(dimethylamino)but-2-enoyl]-methyl-amino]propanoyl]amino]ethyl]-3-pyridyl]amino]-5-ethyl-pyridine-3-carboxamide] | 100 to 500 | 10 to 100 | > 500 |

Continued, values first:

| IC50 (MOLM-13) [nM] | IC50 (MV-4-11) [nM] | IC50 (K-562) [nM] | Structure (SMILES) |
| --- | --- | --- | --- |
| < 1 | < 1 | > 500 | [2H]C([2H])([2H])N(C/C=C/C(=O)N(C)[C@@H](C)C(=O)NCCc1cccc(Nc2nc(N(C)CC)c(CC)nc2C(N)=O)c1)C([2H])([2H])[2H] [Compound 246, (S,E)-3-((3-(2-(2-(4-(bis(methyl-d3)amino)-N-methylbut-2-enamido)propanamido)ethyl)phenyl)amino)-6-ethyl-5-(ethyl(methyl)amino)pyrazine-2-carboxamide] |
| 1 to 10 | < 1 | > 500 | [2H]C([2H])([2H])N(C/C=C/C(=O)N(C)[C@@H](C)C(=O)NCCc1cccc(Nc2nc(N(C)C(C)C)c(C)nc2C(N)=O)c1)C([2H])([2H])[2H] [Compound 247, (S,E)-3-((3-(2-(2-(4-(bis(methyl-d3)amino)-N-methylbut-2-enamido)propanamido)ethyl)phenyl)amino)-5-(isopropyl(methyl)amino)-6-methylpyrazine-2-carboxamide] |
| 1 to 10 | 1 to 10 | > 500 | [2H]C([2H])([2H])N(C/C=C/C(=O)N(C)[C@@H](C)C(=O)NCCc1cccc(Nc2nc(C3CC3)c(C)nc2C(N)=O)c1)C([2H])([2H])[2H] [Compound 248, (S,E)-3-((3-(2-(2-(4-(bis(methyl-d3)amino)-N-methylbut-2-enamido)propanamido)ethyl)phenyl)amino)-5-cyclopropyl-6-methylpyrazine-2-carboxamide] |
| < 1 | < 1 | > 500 | [2H]C([2H])([2H])N(C/C=C/C(=O)N(C)[C@@H](C)C(=O)NCCc1cccc(Nc2nc(N(C)C(C)C)c(CC)nc2C(N)=O)c1)C([2H])([2H])[2H] [Compound 249, (S,E)-3-((3-(2-(2-(4-(bis(methyl-d3)amino)-N-methylbut-2-enamido)propanamido)ethyl)phenyl)amino)-6-ethyl-5-(isopropyl(methyl)amino)pyrazine-2-carboxamide] |
| 10 to 100 | 1 to 10 | > 500 | Cc1nc(Nc2cc(F)cc(CCNC(=O)CN(C)C(=O)/C=C/CN(C)C)c2)c(C(N)=O)nc1C [Compound 251, 3-[3-[2-[[2-[[(E)-4-(dimethylamino)but-2-enoyl]-methyl-amino]acetyl]amino]ethyl]-5-fluoro-anilino]-5,6-dimethyl-pyrazine-2-carboxamide] |
| 10 to 100 | 1 to 10 | > 500 | CCc1nc(Nc2cccc(CCNC(=O)[C@H](C)N(C)C(=O)/C=C/CN(C)C)c2)c(C(N)=O)nc1C [Compound 255, 3-[3-[2-[[(2S)-2-[[(E)-4-(dimethylamino)but-2-enoyl]-methyl-amino]propanoyl]amino]ethyl]anilino]-5-ethyl-6-methyl-pyrazine-2-carboxamide] |
| 10 to 100 | 10 to 100 | > 500 | Cc1nc(Nc2cccc(CCNC(=O)CN(C)C(=O)/C=C/CN(C)C)c2)c(C(N)=O)nc1C [Compound 301, 3-[3-[2-[[2-[[(E)-4-(dimethylamino)but-2-enoyl]-methyl-amino]acetyl]amino]ethyl]anilino]-5,6-dimethyl-pyrazine-2-carboxamide] |
| 10 to 100 | 1 to 10 | > 500 | CCc1nc(C(N)=O)c(Nc2cccc(C[C@H](C)NC(=O)[C@H](C)N(C)C(=O)/C=C/CN(C)C)c2)nc1C [Compound 317, 3-[3-[(2S)-2-[[(2S)-2-[[(E)-4-(dimethylamino)but-2-enoyl]-methyl-amino]propanoyl]amino]propyl]anilino]-6-ethyl-5-methyl-pyrazine-2-carboxamide] |
| 10 to 100 | 1 to 10 | > 500 | CCc1nc(C(N)=O)c(Nc2cccc(CCNC(=O)[C@H](C)N(C)C(=O)CCCN(C)C)c2)nc1N(C)C(C)C [Compound 318, 3-[3-[2-[[(2S)-2-[4-(dimethylamino)butanoyl-methyl-amino]propanoyl]amino]ethyl]anilino]-6-ethyl-5-[isopropyl(methyl)amino]pyrazine-2-carboxamide] |
